Data: paper PMC7926793, “Synthesis and Biological Evaluation of 1-(Diarylmethyl)-1H-1,2,4-triazoles and 1-(Diarylmethyl)-1H-imidazoles as a Novel Class of Anti-Mitotic Agent for Activity in Breast Cancer” (Pharmaceuticals, 2021)
Where two headings read alike, the source gives them in different places.

Legend:
[1] = system: MCF-7 human breast cancer cells; experiment: alamarBlue cell viability assay; format: cell-based; conditions: 72 h; for IC50: alamarBlue, read-out: Antiproliferative Activity MCF-7 Cells IC50
[2] = system: MDA-MB-231 human breast cancer cells; experiment: alamarBlue cell viability assay; format: cell-based; conditions: Homo sapiens, MDA-MB-231, 72 h, read-out: Antiproliferative Activity MDA-MB-231 Cells IC50
[3] = toxicity evaluation, alamarBlue assay; format: cell-based, human; conditions: human, MCF-10A cells
NCI 60 cell line panel = experiment: NCI 60 cell line screen, panel means; format: cell-based, human; conditions: for GI50 / LC50 (50% lethal concentration): Homo sapiens
HL-60 (TB) = experiment: NCI 60 cell line screen (Leukemia); format: cell-based, human
NCI-H23 = experiment: NCI 60 cell line screen (Non-Small Cell Lung Cancer); format: cell-based, human
HCT-116 = experiment: NCI 60 cell line screen (Colon Cancer); format: cell-based, human
HT29 = experiment: NCI 60 cell line screen (Colon Cancer); format: cell-based, human
SNB-75 = experiment: NCI 60 cell line screen (CNS Cancer); format: cell-based, human
PC-3 = experiment: NCI 60 cell line screen (Prostate cancer); format: cell-based, human
MALME-3M = experiment: NCI 60 cell line screen (Melanoma); format: cell-based, human; conditions: single dose 10 µM
M14 = experiment: NCI 60 cell line screen (Melanoma); format: cell-based, human
UACC-62 = experiment: NCI 60 cell line screen (Melanoma); format: cell-based, human
IGROV1 = experiment: NCI 60 cell line screen (Ovarian Cancer); format: cell-based, human
OVCAR-8 = experiment: NCI 60 cell line screen (Ovarian Cancer); format: cell-based, human
NCI/ADR-RES = experiment: NCI 60 cell line screen (Ovarian Cancer); format: cell-based, human
SK-OV-3 = experiment: NCI 60 cell line screen (Ovarian Cancer); format: cell-based, human
CAKI-1 = experiment: NCI 60 cell line screen (Renal Cancer); format: cell-based, human
MDA-MB-231/ATCC = experiment: NCI 60 cell line screen (Breast Cancer); format: cell-based, human
MDA-MB-468 = experiment: NCI 60 cell line screen (Breast Cancer); format: cell-based, human

COc1ccc(C(c2cc(OC)c(OC)c(OC)c2)n2ccnc2)cc1O (stereo not drawn) [21l, 5-((1H-Imidazol-1-yl)(3,4,5-Trimethoxyphenyl)Methyl)-2-Methoxyphenol]
IC50 [1]: 132 ± 7 nM
IC50 ([1]; Homo sapiens, MCF7, 72 h): 130 nM
viability at 1 µM ([1]; Homo sapiens, MCF7, 1 μM, read-out: cell viability (viable cells)): 31%
IC50 [2]: 237 ± 40 nM
viability at 48 h, 0.4 µM ([3]; 0.4 μM, 48 h): ~100%
viability at 48 h, 0.5 µM ([3]; 0.5 μM, 48 h): ~100%
viability at 24 h, 1 µM ([3]; 1 μM, 24 h, read-out: cell viability): 73%
viability at 48 h, 1 µM ([3]; 1 μM, 48 h, read-out: percentage of viable cells): 64%
viability at 72 h, 1 µM ([3]; 1 μM, 72 h, read-out: percentage of viable cells): > 80%
viability at 48 h, 10 µM ([3]; 10 μM, 48 h, read-out: percentage of viable cells): ~30%
Mean Growth percentage (NCI 60 cell line panel; 60 cell line panel, single dose 10 µM): 23.38%
MID TGI (total growth inhibition) (NCI 60 cell line panel; 60 cell lines): 40700 nM
GI50 (NCI 60 cell line panel; 60 cell, CNS cancer cell lines, read-out: GI50 range): 192 to 731 nM
GI50 (NCI 60 cell line panel; 60 cell, NCI 5 dose assay, 60 cell lines, read-out: MG-MID (mean of GI50 values over all cell lines)): 234 nM
GI50 (NCI 60 cell line panel; 60 cell, breast cancer panel, read-out: GI50 range): 306 to 664 nM
LC50 (50% lethal concentration) (NCI 60 cell line panel; 60 cell, COMPARE analysis text, read-out: LC50 values (all)): > 100000 nM
LC50 (50% lethal concentration) (NCI 60 cell line panel; 60 cell lines, read-out: MID LC50): > 100000 nM
GI50 (HL-60 (TB); Homo sapiens, NCI 5 dose assay): 229 nM
Growth percentage (HL-60 (TB); single dose 10 µM): -35.94%
GI50 (NCI-H23; Homo sapiens, NCI-H23, NCI 5 dose assay): 882 nM
Growth percentage (NCI-H23; NCI-H23, single dose 10 µM): 38.92%
Growth percentage (HCT-116; HCT-116, single dose 10 µM): 6.88%
GI50 (HCT-116; Homo sapiens, HCT-116, NCI 5 dose assay): 249 nM
Growth percentage (HT29; HT29, single dose 10 µM): 5.94%
GI50 (HT29; Homo sapiens, HT-29, HT29, NCI 5 dose assay): 312 nM
GI50 (SNB-75; Homo sapiens, SNB-75, NCI 5 dose assay): 192 nM
Growth percentage (SNB-75; SNB-75, single dose 10 µM): 56.72%
GI50 (PC-3; Homo sapiens, PC-3, NCI 5 dose assay): 384 nM
Growth percentage (PC-3; PC-3, single dose 10 µM): 20.69%
Growth percentage (MALME-3M): 66.57%
GI50 (M14; Homo sapiens, M14, NCI 5 dose assay): 180 nM
Growth percentage (M14; M14, single dose 10 µM): 0.91%
GI50 (UACC-62; Homo sapiens, UACC-62, NCI 5 dose assay): 668 nM
Growth percentage (UACC-62; UACC-62, single dose 10 µM): 36.48%
GI50 (IGROV1; Homo sapiens, IGROV-1, IGROV1, NCI 5 dose assay): 862 nM
Growth percentage (IGROV1; IGROV1, single dose 10 µM): 36.42%
GI50 (OVCAR-8; Homo sapiens, OVCAR-8, NCI 5 dose assay): 450 nM
Growth percentage (OVCAR-8; OVCAR-8, single dose 10 µM): 10.28%
GI50 (NCI/ADR-RES; Homo sapiens, NCI 5 dose assay): 1920 nM
Growth percentage (NCI/ADR-RES; single dose 10 µM): 12.06%
GI50 (SK-OV-3; Homo sapiens, SK-OV-3, NCI 5 dose assay): 465 nM
Growth percentage (SK-OV-3; SK-OV-3, single dose 10 µM): 21.78%
Growth percentage (CAKI-1; CAKI-1, single dose 10 µM): 41.26%
GI50 (CAKI-1; Homo sapiens, CAKI-1, NCI 5 dose assay): 681 nM
GI50 (MDA-MB-231/ATCC; Homo sapiens, NCI 5 dose assay): 664 nM
Growth percentage (MDA-MB-231/ATCC; single dose 10 µM): 34.75%
GI50 (MDA-MB-468; Homo sapiens, MDA-MB-468, NCI 5 dose assay): 316 nM
Growth percentage (MDA-MB-468; MDA-MB-468, single dose 10 µM): 15.64%
